How the values were obtained:
Assay type in all cases: functional
[1] = tested on: SNB-19; assay: Cytotoxicity against human SNB19 cells assessed as cell growth at 0.1 uM after 48 hrs by sulforhodamine B assay relative to control; settings: SNB-19, 48 h, read-out: Activity
[2] = tested on: NCI-H322M; assay: Cytotoxicity against human NCI-H322M cells assessed as cell growth at 10 uM after 48 hrs by sulforhodamine B assay relative to control; settings: read-out: Activity
[3] = tested on: Malme-3M; assay: Cytotoxicity against human MALME-3M cells assessed as cell growth at 10 uM after 48 hrs by sulforhodamine B assay relative to control; settings: read-out: Activity
[4] = tested on: NCI-H322M; assay: Cytotoxicity against human NCI-H322M cells assessed as cell growth at 100 uM after 48 hrs by sulforhodamine B assay relative to control; settings: read-out: Activity
[5] = tested on: Malme-3M; assay: Cytotoxicity against human MALME-3M cells assessed as cell growth at 0.01 uM after 48 hrs by sulforhodamine B assay relative to control; settings: read-out: Activity
[6] = tested on: RXF 393; assay: Cytotoxicity against human RXF393 cells assessed as growth inhibition after 48 hrs by sulforhodamine B assay; settings: RXF 393, 48 h
[7] = tested on: CCRF-CEM; assay: Cytotoxicity against human CCRF-CEM cells assessed as cell growth at 0.01 uM after 48 hrs by sulforhodamine B assay relative to control; settings: read-out: Activity
[8] = tested on: RXF 393; assay: Cytotoxicity against human RXF393 cells assessed as cell growth at 100 uM after 48 hrs by sulforhodamine B assay relative to control; settings: RXF 393, 48 h, read-out: Activity
[9] = tested on: BT-549; assay: Cytotoxicity against human BT549 cells assessed as growth inhibition after 48 hrs by sulforhodamine B assay; settings: BT-549, 48 h
[10] = tested on: HOP-62; assay: Cytotoxicity against human HOP62 cells assessed as cell growth at 100 uM after 48 hrs by sulforhodamine B assay relative to control; settings: HOP-62, 48 h, read-out: Activity
[11] = tested on: RXF 393; assay: Cytotoxicity against human RXF393 cells assessed as cell growth at 0.1 uM after 48 hrs by sulforhodamine B assay relative to control; settings: RXF 393, 48 h, read-out: Activity
[12] = tested on: OVCAR-3; assay: Cytotoxicity against human OVCAR3 cells assessed as cell growth at 100 uM after 48 hrs by sulforhodamine B assay relative to control; settings: OVCAR-3, 48 h, read-out: Activity
[13] = tested on: MDA-MB-231; assay: Cytotoxicity against human MDA-MB-231 cells assessed as growth inhibition after 48 hrs by sulforhodamine B assay; settings: MDA-MB-231, 48 h
[14] = tested on: CCRF-CEM; assay: Cytotoxicity against human CCRF-CEM cells assessed as cell growth at 0.1 uM after 48 hrs by sulforhodamine B assay relative to control; settings: read-out: Activity
[15] = tested on: SNB-19; assay: Cytotoxicity against human SNB19 cells assessed as cell growth at 10 uM after 48 hrs by sulforhodamine B assay relative to control; settings: SNB-19, 48 h, read-out: Activity
[16] = tested on: IGROV-1; assay: Cytotoxicity against human IGROV1 cells assessed as cell growth at 0.01 uM after 48 hrs by sulforhodamine B assay relative to control; settings: IGROV-1, 48 h, read-out: Activity
[17] = tested on: HCT-116; assay: Cytotoxicity against human HCT116 cells assessed as cell growth at 0.1 uM after 48 hrs by sulforhodamine B assay relative to control; settings: HCT-116, 48 h, read-out: Activity
[18] = tested on: UACC-257; assay: Cytotoxicity against human UACC257 cells assessed as cell growth at 0.1 uM after 48 hrs by sulforhodamine B assay relative to control; settings: UACC-257, 48 h, read-out: Activity
[19] = tested on: TK-10; assay: Cytotoxicity against human TK10 cells assessed as cell growth at 0.01 uM after 48 hrs by sulforhodamine B assay relative to control; settings: TK-10, 48 h, read-out: Activity
[20] = tested on: CCRF-CEM; assay: Cytotoxicity against human CCRF-CEM cells assessed as growth inhibition after 48 hrs by sulforhodamine B assay
[21] = tested on: SF-539; assay: Cytotoxicity against human SF539 cells assessed as growth inhibition after 48 hrs by sulforhodamine B assay; settings: SF-539, 48 h
[22] = tested on: OVCAR-4; assay: Cytotoxicity against human OVCAR4 cells assessed as growth inhibition after 48 hrs by sulforhodamine B assay; settings: OVCAR-4, 48 h
[23] = tested on: SF-539; assay: Cytotoxicity against human SF539 cells assessed as cell growth at 10 uM after 48 hrs by sulforhodamine B assay relative to control; settings: SF-539, 48 h, read-out: Activity
[24] = tested on: UACC-62; assay: Cytotoxicity against human UACC62 cells assessed as cell growth at 10 uM after 48 hrs by sulforhodamine B assay relative to control; settings: UACC-62, 48 h, read-out: Activity
[25] = tested on: NCI-H226; assay: Cytotoxicity against human NCI-H226 cells assessed as growth inhibition after 48 hrs by sulforhodamine B assay; settings: NCI-H226, 48 h
[26] = tested on: UACC-62; assay: Cytotoxicity against human UACC62 cells assessed as growth inhibition after 48 hrs by sulforhodamine B assay; settings: UACC-62, 48 h
[27] = tested on: HCT-15; assay: Cytotoxicity against human HCT15 cells assessed as cell growth at 0.1 uM after 48 hrs by sulforhodamine B assay relative to control; settings: HCT-15, 48 h, read-out: Activity
[28] = tested on: SK-MEL-5; assay: Cytotoxicity against human SK-MEL-5 cells assessed as cell growth at 0.01 uM after 48 hrs by sulforhodamine B assay relative to control; settings: SK-MEL-5, 48 h, read-out: Activity
[29] = tested on: HCT-116; assay: Cytotoxicity against human HCT116 cells assessed as cell growth at 10 uM after 48 hrs by sulforhodamine B assay relative to control; settings: HCT-116, 48 h, read-out: Activity
[30] = tested on: ACHN; assay: Cytotoxicity against human ACHN cells assessed as cell growth at 1 uM after 48 hrs by sulforhodamine B assay relative to control; settings: read-out: Activity
[31] = tested on: SK-OV-3; assay: Cytotoxicity against human SKOV3 cells assessed as cell growth at 0.01 uM after 48 hrs by sulforhodamine B assay relative to control; settings: SK-OV-3, 48 h, read-out: Activity
[32] = tested on: NCI-H522; assay: Cytotoxicity against human NCI-H522 cells assessed as cell growth at 10 uM after 48 hrs by sulforhodamine B assay relative to control; settings: NCI-H522, 48 h, read-out: Activity
[33] = tested on: ACHN; assay: Cytotoxicity against human ACHN cells assessed as cell growth at 10 uM after 48 hrs by sulforhodamine B assay relative to control; settings: read-out: Activity
[34] = tested on: NCI-H522; assay: Cytotoxicity against human NCI-H522 cells assessed as cell growth at 1 uM after 48 hrs by sulforhodamine B assay relative to control; settings: NCI-H522, 48 h, read-out: Activity
[35] = tested on: K562; assay: Cytotoxicity against human K562 cells assessed as growth inhibition after 48 hrs by sulforhodamine B assay; settings: K562, 48 h

With `COc1cc2c(cc1OC)C(=O)/C(=C/c1cc(-c3ccc4c(c3)OCO4)n[nH]1)C2` the growth at 0.1 µM [1] was 98%, the growth at 10 µM [2] was -90% and the growth at 10 µM [3] was -70%. For the same compound, the growth at 100 µM [4] was -91%, the growth at 0.01 µM [5] was 93% and the GI50 [6] was 1.54 µM. The LC50 (concentration killing 50% of cells) [6] was 6.62 µM, the TGI [6] was 3.19 µM and the growth at 0.01 µM [7] was 97%. For the same compound, the growth at 100 µM [8] was -92%, the GI50 [9] was 1.62 µM and the LC50 (concentration killing 50% of cells) [9] was 5.71 µM. The TGI [9] was 3.04 µM, the growth at 100 µM [10] was -92% and the growth at 0.1 µM [11] was 82%. The growth at 100 µM [12] was -90%, the GI50 [13] was 1.66 µM and the LC50 [13] was 6.18 µM. For the same compound, the TGI [13] was 3.2 µM, the growth at 0.1 µM [14] was 96% and the growth at 10 µM [15] was -95%. The growth at 0.01 µM [16] was 100%, the growth at 0.1 µM [17] was 105% and the growth at 0.1 µM [18] was 94%. For the same compound, the growth at 0.01 µM [19] was 88%, the GI50 [20] was 1.14 µM and the LC50 (concentration killing 50% of cells) [20] was over 100 µM. For the same compound, the TGI [20] was 3.61 µM, the GI50 [21] was 1.27 µM and the LC50 (concentration killing 50% of cells) [21] was 5.22 µM. The TGI [21] was 2.57 µM, the GI50 [22] was 1.11 µM and the LC50 [22] was 5 µM. It also gave a TGI [22] of 2.36 µM, a growth at 10 µM [23] of -96% and a growth at 10 µM [24] of -96%. It also gave a GI50 [25] of 1.55 µM, a TGI [25] of 3.32 µM and a GI50 [26] of 1.63 µM. It also gave an LC50 [26] of 5.66 µM, a TGI [26] of 3.04 µM and a growth at 0.1 µM [27] of 93%. The growth at 0.01 µM [28] was 95%, the growth at 10 µM [29] was -75% and the growth at 1 µM [30] was 94%. It also gave a growth at 0.01 µM [31] of 102%, a growth at 10 µM [32] of -80% and a growth at 10 µM [33] of -90%. For the same compound, the growth at 1 µM [34] was -6%, the GI50 [35] was 1.59 µM and the LC50 (concentration killing 50% of cells) [35] was over 100 µM. It also gave a TGI [35] of over 100 µM.
In the case of `COc1cc(C(=O)/C=C/c2cc(-c3ccc4c(c3)OCO4)n[nH]2)cc(OC)c1OC`, the growth at 0.1 µM [1] is reported as 93%, the growth at 10 µM [2] is reported as -22% and the growth at 10 µM [3] is reported as -41%. It also gave a growth at 100 µM [4] of -95%, a growth at 0.01 µM [5] of 94% and a GI50 [6] of 1.31 µM. For the same compound, the LC50 (concentration killing 50% of cells) [6] was 6.59 µM, the TGI [6] was 2.94 µM and the growth at 0.01 µM [7] was 99%. For the same compound, the growth at 100 µM [8] was -92%, the GI50 [9] was 2.02 µM and the LC50 (concentration killing 50% of cells) [9] was 20.1 µM. For the same compound, the TGI [9] was 5 µM, the growth at 100 µM [10] was -91% and the growth at 0.1 µM [11] was 83%. The growth at 100 µM [12] was -97%, the GI50 [13] was 2.08 µM and the LC50 [13] was 23.8 µM. For the same compound, the TGI [13] was 6.23 µM, the growth at 0.1 µM [14] was 98% and the growth at 10 µM [15] was 7%. The growth at 0.01 µM [16] was 101%, the growth at 0.1 µM [17] was 100% and the growth at 0.1 µM [18] was 97%. The growth at 0.01 µM [19] was 93%, the GI50 [20] was 2 µM and the LC50 (concentration killing 50% of cells) [20] was over 100 µM. It also gave a TGI [20] of 5.74 µM, a GI50 [21] of 1.33 µM and an LC50 (concentration killing 50% of cells) [21] of 6.65 µM. The TGI [21] was 2.98 µM, the GI50 [22] was 0.88 µM and the LC50 [22] was 20.1 µM. For the same compound, the TGI [22] was 4.24 µM, the growth at 10 µM [23] was -75% and the growth at 10 µM [24] was -62%. For the same compound, the GI50 [25] was 1.52 µM, the LC50 (concentration killing 50% of cells) [25] was over 100 µM and the TGI [25] was 4.25 µM. It also gave a GI50 [26] of 1.81 µM, an LC50 [26] of 8.36 µM and a TGI [26] of 3.89 µM. For the same compound, the growth at 0.1 µM [27] was 101%, the growth at 0.01 µM [28] was 99% and the growth at 10 µM [29] was -43%. The growth at 1 µM [30] was 99%, the growth at 0.01 µM [31] was 98% and the growth at 10 µM [32] was -71%. For the same compound, the growth at 10 µM [33] was -43%, the growth at 1 µM [34] was 80% and the GI50 [35] was 2.17 µM. It also gave an LC50 (concentration killing 50% of cells) [35] of over 100 µM and a TGI [35] of over 100 µM.
